{
  "source": "ChEMBL document CHEMBL3045037",
  "about": "“Insecticidal and Neuroblocking Activities of Acetamiprid and Related Compounds” (J Pestic Sci, 2003)",
  "key": {"[1]": {"system": "Abdominal central nerve cord", "assay": "Neuroblocking activity in adult male Periplaneta americana (American cockroach) abdominal central nerve cords assessed as neuroblocking concentration measured at 22 to 25 degC", "assay_type": "functional"}, "[2]": {"system": "Periplaneta americana", "assay": "Insecticidal activity against adult male Periplaneta americana (American cockroach) dosed through injection into abdomen assessed as mortality measured 24 hr post dose", "assay_type": "functional"}, "[3]": {"system": "Periplaneta americana", "assay": "Insecticidal activity against adult male Periplaneta americana (American cockroach) dosed through injection into abdomen assessed as mortality measured 24 hr post dose in presence of 50 ug metabolic inhibitor PB", "assay_type": "functional"}, "[4]": {"system": "Periplaneta americana", "assay": "Insecticidal activity against adult male Periplaneta americana (American cockroach) dosed through injection into abdomen assessed as mortality measured 24 hr post dose in presence of 50 ug metabolic inhibitor PB and 50 ug NIA", "assay_type": "functional"}, "[5]": {"assay": "Lipophilicity, log P of the compound by HPLC based shake flask method", "assay_type": "physicochemical"}},
  "data": [
    {"compound": "C/C(=N\\C#N)NCc1ccc(Cl)nc1", "values": [
      {"measurement": "log(1/BC)", "setting": "[1]", "value": 3.7},
      {"measurement": "log(1/MLD)", "setting": "[2]", "value": 6.4},
      {"measurement": "log(1/MLD)", "setting": "[3]", "value": 6.7},
      {"measurement": "log(1/MLD)", "setting": "[4]", "value": 7.5},
      {"measurement": "logP", "setting": "[5]", "value": 1.07}
    ]},
    {"compound": "CCN(Cc1ccc(Cl)nc1)/C(C)=N/C#N", "values": [
      {"measurement": "log(1/BC)", "setting": "[1]", "value": 5.87},
      {"measurement": "log(1/MLD)", "setting": "[2]", "value": 7.14},
      {"measurement": "log(1/MLD)", "setting": "[3]", "value": 7.63},
      {"measurement": "log(1/MLD)", "setting": "[4]", "value": 9.24},
      {"measurement": "logP", "setting": "[5]", "value": 1.19}
    ]},
    {"compound": "CCCN(Cc1ccc(Cl)nc1)/C(C)=N/C#N", "values": [
      {"measurement": "log(1/BC)", "setting": "[1]", "value": 5.14},
      {"measurement": "log(1/MLD)", "setting": "[2]", "value": 7.04},
      {"measurement": "log(1/MLD)", "setting": "[3]", "value": 7.44},
      {"measurement": "log(1/MLD)", "setting": "[4]", "value": 8.34},
      {"measurement": "logP", "setting": "[5]", "value": 1.62}
    ]},
    {"compound": "C/C(=N\\C#N)N(Cc1ccc(Cl)nc1)C(C)C", "values": [
      {"measurement": "log(1/BC)", "setting": "[1]", "value": 4.47},
      {"measurement": "log(1/MLD)", "setting": "[2]", "value": 6.78},
      {"measurement": "log(1/MLD)", "setting": "[4]", "value": 7.67},
      {"measurement": "logP", "setting": "[5]", "value": 1.46}
    ]},
    {"compound": "C=CCN(Cc1ccc(Cl)nc1)/C(C)=N/C#N", "values": [
      {"measurement": "log(1/BC)", "setting": "[1]", "value": 5.46},
      {"measurement": "log(1/MLD)", "setting": "[2]", "value": 7.07},
      {"measurement": "log(1/MLD)", "setting": "[4]", "value": 8.07},
      {"measurement": "logP", "setting": "[5]", "value": 1.56}
    ]},
    {"compound": "CCCCN(Cc1ccc(Cl)nc1)/C(C)=N/C#N", "values": [
      {"measurement": "log(1/BC)", "setting": "[1]", "value": 4.48},
      {"measurement": "log(1/MLD)", "setting": "[2]", "value": "<7.01"},
      {"measurement": "log(1/MLD)", "setting": "[4]", "value": 7.71},
      {"measurement": "logP", "setting": "[5]", "value": 2.13}
    ]},
    {"compound": "CCCCCN(Cc1ccc(Cl)nc1)/C(C)=N/C#N", "values": [
      {"measurement": "log(1/BC)", "setting": "[1]", "value": 5.01},
      {"measurement": "log(1/MLD)", "setting": "[2]", "value": "<6.9"},
      {"measurement": "log(1/MLD)", "setting": "[4]", "value": 7.8},
      {"measurement": "logP", "setting": "[5]", "value": 2.37}
    ]},
    {"compound": "C/C(=N\\C#N)N(Cc1ccccc1)Cc1ccc(Cl)nc1", "values": [
      {"measurement": "log(1/BC)", "setting": "[1]", "value": 4.46},
      {"measurement": "log(1/MLD)", "setting": "[2]", "value": 6.7},
      {"measurement": "log(1/MLD)", "setting": "[4]", "value": 7.6},
      {"measurement": "logP", "setting": "[5]", "value": 2.11}
    ]},
    {"compound": "CC/C(=N\\C#N)N(C)Cc1ccc(Cl)nc1", "values": [
      {"measurement": "log(1/BC)", "setting": "[1]", "value": 5.23},
      {"measurement": "log(1/MLD)", "setting": "[2]", "value": 7.24},
      {"measurement": "log(1/MLD)", "setting": "[3]", "value": 7.64},
      {"measurement": "log(1/MLD)", "setting": "[4]", "value": 8.54},
      {"measurement": "logP", "setting": "[5]", "value": 1.12}
    ]},
    {"compound": "CCC/C(=N\\C#N)N(C)Cc1ccc(Cl)nc1", "values": [
      {"measurement": "log(1/BC)", "setting": "[1]", "value": 3.78},
      {"measurement": "log(1/MLD)", "setting": "[2]", "value": "<6.58"},
      {"measurement": "log(1/MLD)", "setting": "[3]", "value": 6.68},
      {"measurement": "log(1/MLD)", "setting": "[4]", "value": 7.77},
      {"measurement": "logP", "setting": "[5]", "value": 1.55}
    ]},
    {"compound": "CC(C)/C(=N\\C#N)N(C)Cc1ccc(Cl)nc1", "values": [
      {"measurement": "log(1/BC)", "setting": "[1]", "value": 3.44},
      {"measurement": "log(1/MLD)", "setting": "[2]", "value": 6.44},
      {"measurement": "log(1/MLD)", "setting": "[3]", "value": 6.74},
      {"measurement": "log(1/MLD)", "setting": "[4]", "value": 7.44},
      {"measurement": "logP", "setting": "[5]", "value": 1.39}
    ]},
    {"compound": "CCCC/C(=N\\C#N)N(C)Cc1ccc(Cl)nc1", "values": [
      {"measurement": "log(1/BC)", "setting": "[1]", "value": "<3.37"},
      {"measurement": "log(1/MLD)", "setting": "[2]", "value": "<6.37"},
      {"measurement": "log(1/MLD)", "setting": "[3]", "value": "<6.37"},
      {"measurement": "log(1/MLD)", "setting": "[4]", "value": 6.77},
      {"measurement": "logP", "setting": "[5]", "value": 1.87}
    ]},
    {"compound": "CC(C)C/C(=N\\C#N)N(C)Cc1ccc(Cl)nc1", "values": [
      {"measurement": "log(1/BC)", "setting": "[1]", "value": "<3.3"},
      {"measurement": "log(1/MLD)", "setting": "[2]", "value": "<6.3"},
      {"measurement": "log(1/MLD)", "setting": "[3]", "value": "<6.3"},
      {"measurement": "log(1/MLD)", "setting": "[4]", "value": 6.9},
      {"measurement": "logP", "setting": "[5]", "value": 1.75}
    ]},
    {"compound": "CCCCC/C(=N\\C#N)N(C)Cc1ccc(Cl)nc1", "values": [
      {"measurement": "log(1/BC)", "setting": "[1]", "value": "<3.2"},
      {"measurement": "log(1/MLD)", "setting": "[2]", "value": "<6.2"},
      {"measurement": "log(1/MLD)", "setting": "[3]", "value": 6.2},
      {"measurement": "log(1/MLD)", "setting": "[4]", "value": 6.8},
      {"measurement": "logP", "setting": "[5]", "value": 2.3}
    ]},
    {"compound": "CN(Cc1ccc(Cl)nc1)/C(=N/C#N)c1ccccc1", "values": [
      {"measurement": "log(1/BC)", "setting": "[1]", "value": "<3.39"},
      {"measurement": "log(1/MLD)", "setting": "[2]", "value": "<6.39"},
      {"measurement": "log(1/MLD)", "setting": "[3]", "value": 6.48},
      {"measurement": "log(1/MLD)", "setting": "[4]", "value": 6.99},
      {"measurement": "logP", "setting": "[5]", "value": 1.86}
    ]},
    {"compound": "CN(Cc1ccc(Cl)nc1)/C(Cc1ccccc1)=N/C#N", "values": [
      {"measurement": "log(1/BC)", "setting": "[1]", "value": "<3.58"},
      {"measurement": "log(1/MLD)", "setting": "[2]", "value": "<6.58"},
      {"measurement": "log(1/MLD)", "setting": "[3]", "value": "<6.58"},
      {"measurement": "log(1/MLD)", "setting": "[4]", "value": 6.78},
      {"measurement": "logP", "setting": "[5]", "value": 2.13}
    ]},
    {"compound": "C/C(=N\\C#N)N(C)Cc1ccc(Cl)nc1", "note": "[ACETAMIPRID]", "values": [
      {"measurement": "log(1/BC)", "setting": "[1]", "value": 6.19},
      {"measurement": "log(1/MLD)", "setting": "[2]", "value": 8.28},
      {"measurement": "log(1/MLD)", "setting": "[3]", "value": 8.58},
      {"measurement": "log(1/MLD)", "setting": "[4]", "value": 9.68},
      {"measurement": "logP", "setting": "[5]", "value": 0.83}
    ]},
    {"compound": "O=[N+]([O-])/N=C1\\NCCN1Cc1ccc(Cl)nc1", "note": "[IMIDACLOPRID]", "values": [
      {"measurement": "log(1/BC)", "setting": "[1]", "value": 5.64},
      {"measurement": "log(1/MLD)", "setting": "[2]", "value": 8.96},
      {"measurement": "log(1/MLD)", "setting": "[3]", "value": 9.26},
      {"measurement": "log(1/MLD)", "setting": "[4]", "value": 10.15},
      {"measurement": "logP", "setting": "[5]", "value": 0.6}
    ]}
  ]
}
